Source: patent US8466164B2

What was measured:
recombinant human Src = recombinant human Src (Homo sapiens, UniProt P12931); assay: cell-free Src enzymatic assay; assay type: biochemical; conditions: calculated from ID50; triplicate, mean values; read-out: Ki toward recombinant human Src
[1] = system: Ba/F3 cells expressing mutated Bcr-Abl / IM-resistant cell lines; assay: Annexin V/PI apoptotic assay on Ba/F3 cells; assay type: cell-based; conditions: 5 μM
Experimental: Apoptotic assay was performed on 1×10^6 cells and apoptotic cells were recognized by cytofluorimetric analysis of fluorescinated Annexin V (Roche) and PI uptake.

[2] = system: phosphorylation of Bcr-Abl (Tyr245), Src (Tyr416) and Lyn (Tyr507); assay: western blot of kinase phosphorylation in Ba/F3 cells; assay type: cell-based; conditions: 5 μM, up to 24th h of exposure, Imatinib-sensitive and resistant contexts
Experimental: The inhibitory effects of S29 toward the phosphorylation of Bcr-Abl (Tyr245), Src (Tyr416) and Lyn (Tyr507) were assessed using western blot analysis. Whole cell lysates were obtained from 1×10^7 cells (either untreated or following 24 h and 48 h exposure to 5 μM S29) in lysis buffer.
Protein lysates from whole cells were incubated overnight with the primary antibodies (anti-Abl phosphorylated at Tyr245, Cell Signaling; anti-Src phosphorylated at Tyr416, Cell Signaling; anti-Lyn phosphorylated at Tyr507, Cell Signaling; anti-Lyn, Biosource; anti-Beta-actin, Santa Cruz Biotechnology) and then 1 h at rt with the secondary antibodies (Amersham). Beta actin was used for protein loading control. Signal intensities from 3 repeated blots were quantified by a GS-700 Imagining densitometer (BioRad) equipped with a dedicated software (Molecular Analyst).

[3] = system: Src-Y416 phosphorylation in SaOS-2; assay: immunoblotting of phospho-Src-Y416 in SaOS-2; assay type: cell-based, human; conditions: SaOS-2, compounds at their IC50, 3 h
Experimental: Compounds were used at their corresponding IC50. Cells were treated for 3 h prior to their lysis. A) Specific c-Src phosphorylation was evaluated when whole-cell lysates were immunoprobed with anti-nonphospho-Src-Y416 and anti-phospho-Src-Y416 antibodies. B) Graph reports the optical density values relative to immunoreactive bands of phospho-Src-Y416. […] C) Graphical representation of SI-83 (magenta) into the ATP binding pocket of Src. The solvent accessible surface of residues is depicted (blue), while several amino acids, responsible for the major hydrophobic contacts with the binding site, are also shown (cyan).
For Phospho-SrcY416 detection, cells were lysed in ice-cold 0.1% SDS containing a cocktail of protease inhibitors and 1 mM sodium orthovanadate (Sigma-Aldrich). […] All antibodies employed were from Cell Signaling Technology ([…], USA). Proteins were probed with primary antibodies o.n. at 4° C., followed by secondary antibodies for 1 h at room temperature. Detection was obtained by ImmunoStar HRP™ (BioRad). Band areas were detected using ImageScanner™ (Amersham Bioscience, Little Chalfont, GB) and bands' optical densities were analysed by Image Master software (Amersham Bioscience). Band optical densities of Phospho-SrcY416 were normalized against those of total Src as an internal control.

SaOS-2 xenograft = SaOS-2 xenograft in nude mice; assay type: in vivo, CD 1 nude mice
Experimental: In order to evaluate the effect of SI-83 in a preclinical experimental model of osteosarcoma the authors injected s.c. SaOS-2 cells together with Matrigel in nude mice. […] The authors divided mice in three groups containing each 4 mice: mice receiving vehicle (control); mice receiving 50 mg/kg SI-83; mice receiving 100 mg/kg SI-83. The administration of SI-83 determined at endpoint a reduction in xenograft growth respect to control measured as weight reduction (FIG. 6B1). At the dose of 100 mg/kg, SI-83 determined a significant reduction (P<0.01) in tumour weight of about 40% respect to control tumours. Also the administration of 50 mg/kg SI-83 determined a smaller (about 15%) but significant reduction (p<0.05) in tumour volume respect to control (FIG. 6B1). Xenograft tissues were processed for histologic evaluation of phospho-Src expression (FIG. 6B3). Tumour cells in the control group expressed detectable levels of phospho-Src.
CD 1 nude mice (Charles River, Milan, Italy) were maintained under the guidelines established by the authors' Institution (University of L'Aquila, Medical School and Science and Technology School Board Regulations, complying with the Italian government regulation n.116 Jan. 27, 1992 for the use of laboratory animals). Before tumour cells implantation, mice were anesthesized with a mixture of ketamine (25 mg/mL)/xylazine (5 mg/mL). Xenografts were obtained by injecting s.c. 1×10^6 SaOS-2 cells in 100 μL of 12 mg/ml Matrigel (Becton Dickinson). Mice received daily the drug by per os administration at the doses indicated. Tumour growth was monitored daily and at the endpoint, after 26 days, the tumors were excided, weighted and processed for histology. Briefly tumors were fixed in 4% formaldehyde in 0.1 M phosphate buffer, pH 7.2 and embedded in paraffin. Slide-mounted tissue sections (4 μm thick) were deparaffinized in xylene and hydrated serially in 100, 95, and 80% ethanol. Endogenous peroxidases were quenched in 3% H2O2 in PBS for 1 h and then slides were incubated with anti human Src [pY416] phosphospecific antibody (Biosource, Camarillo, Calif., USA) for 1 h at room temperature.

mouse osteoclasts = assay: osteoclast bone resorption assay; assay type: cell-based
Source text: It is very important to note that there is a significant difference in bone resorption for the control (DMSO) in the two experiments reported in FIG. 4. […] The method used to measure bone resorption is based on the growth in vitro of osteoclasts that then resorb bone. However, this cell-based assay is usually characterized by a significant variability, mainly due to the fact that the basic amount of bone resorption can vary among replicates. Although such a limitation, this assay is widely recognized as the gold standard to assess the ability of compounds to inhibit bone resorption by osteoclasts.^53

MNNG cells = assay: MTT cell viability assay on MNNG; assay type: cell-based, human; conditions: 48 h
TE-85 = assay: MTT cell viability assay on TE-85; assay type: cell-based, human; conditions: 48 h
U-20S = assay: MTT cell viability assay on U-20S; assay type: cell-based, human; conditions: 48 h
MG63 = assay: MTT cell viability assay on MG63; assay type: cell-based, human; conditions: 48 h
SaOS-2 cells [4] = assay: TUNEL assay on SaOS-2; assay type: cell-based, human; conditions: 48 h treatment, 12.5 μM
in vitro = conditions: male, human, primary human osteoblasts
SaOS-2 cells [5] = assay: MTT cell viability assay on SaOS-2; conditions: for CV (%) after 24 h (cellular viability with respect to control): 24 h treatment; for CV (%) after 24 h (cellular viability with respect to control) / CV (%) after 48 h (cellular viability with respect to control): control = 100%, mean ± SD; for CV (%) after 48 h (cellular viability with respect to control): 48 h treatment, 25 μM; for IC50: read-out: IC50 on SaOS-2 cell viability, MTT, 1-100 μM, 48 h
[6] = system: human primary osteoblasts; assay: Hoechst staining of primary osteoblasts; conditions: 25 μM
normal human osteoblasts = assay: nodule formation and mineralization (alizarin red S); conditions: IC5, IC20, IC50 (SaOS-2); for tolerance of treatment by osteoblasts: three weeks
[7] = system: primary human osteoblasts; assay: MTT cell viability assay on primary human osteoblasts; conditions: 48 h; for reduction of osteoblast growth (inhibitory activity): 25 μM
[8] = system: primary human osteoblasts; assay: flow cytometric apoptosis analysis on primary osteoblasts; conditions: for reduction of pro-apoptotic effect on osteoblasts respecting to SaOS-2: at IC50 (determined on SaOS-2), 48 h
SaOS-2 cells [9] = assay: flow cytometric cell cycle/apoptosis analysis on SaOS-2; conditions: 48 h, 3 μM to 100 μM

Chain of recombinant human Src (P12931 whole entry): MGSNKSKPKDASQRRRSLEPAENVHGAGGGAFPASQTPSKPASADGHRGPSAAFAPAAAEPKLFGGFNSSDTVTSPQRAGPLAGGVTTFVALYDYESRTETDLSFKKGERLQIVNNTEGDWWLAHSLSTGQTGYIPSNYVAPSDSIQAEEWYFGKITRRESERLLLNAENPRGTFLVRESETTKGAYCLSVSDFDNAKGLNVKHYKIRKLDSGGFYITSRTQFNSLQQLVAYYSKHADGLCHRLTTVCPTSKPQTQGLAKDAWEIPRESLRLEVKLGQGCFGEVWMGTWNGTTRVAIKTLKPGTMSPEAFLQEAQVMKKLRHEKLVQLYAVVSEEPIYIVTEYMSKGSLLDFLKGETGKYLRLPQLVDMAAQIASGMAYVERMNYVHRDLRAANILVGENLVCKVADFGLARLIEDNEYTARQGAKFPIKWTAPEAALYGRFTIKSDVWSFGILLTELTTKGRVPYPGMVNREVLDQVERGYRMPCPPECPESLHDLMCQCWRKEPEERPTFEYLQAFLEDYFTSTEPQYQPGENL

In the case of `Fc1ccc(CNc2ncnc3c2cnn3CC(Cl)c2ccc(Cl)cc2)cc1` (centres unmarked) [S-29], the Ki (recombinant human Src) is reported as 0.5 µM, the apoptosis induction ([1]; IM-resistant cell lines additioned with IL-3, after 24 h of exposure) is reported as “apoptosis occurred” and the apoptosis induction ([1]; mutated cell lines, after 48 h treatment) is reported as “induced apoptotic death”. The “Bcr-Abl and Lyn-Src kinase phosphorylation” value [2] was “Complementary abrogation”.
With `CSc1nc(Nc2cccc(Cl)c2)c2cnn(CC(Cl)c3ccccc3)c2n1` (centres unmarked) [SI-83] the Ki (recombinant human Src) was 0.6 µM, the “inhibition of phosphorylation of Src at Y416” value [3] was 55% and the “reduction in tumour volume respect to control” value (SaOS-2 xenograft; 50 mg/kg daily per os, endpoint day 26, p<0.05) was “about 15%”. The “reduction in tumour weight respect to control” value (SaOS-2 xenograft; 100 mg/kg daily per os, endpoint day 26, P<0.01) was “about 40%”, the “signs of distress or loss of weight in mice” value (SaOS-2 xenograft; daily administration) was “did not determine any appreciable sign of distress or loss of weight” and the “phospho-Src staining of tumour tissues” value (SaOS-2 xenograft; treated groups, immunohistology Src [pY416]) was “faint or null staining”. For the same compound, the bone resorption (mouse osteoclasts; 10 and 1 μM) was “abrogate bone resorption”, the “percent inhibition of bone resorption” value (mouse osteoclasts; reduced test dose (up to 1 nM)) was “lower but significant” and the “response of cell viability compared with SaOS-2” value (MNNG cells) was “even more responsive than SaOS-2”. The “response of cell viability” value (TE-85) was “less susceptible”, the “response of cell viability” value (U-20S) was “less susceptible” and the “response of cell viability” value (MG63) was “less susceptible”. For the same compound, the “pro-apoptotic effect (TUNEL)” value (SaOS-2 cells [4]) was “strongest pro-apoptotic effect”, the viability at 48 h, 25 µM (in vitro) was about 80% and the “CV (%) after 24 h (cellular viability with respect to control)” value (SaOS-2 cells [5]; SaOS-2, MTT) was 17.1 ± 1.3%. For the same compound, the “CV (%) after 48 h (cellular viability with respect to control)” value (SaOS-2 cells [5]; SaOS-2, MTT) was 15.1 ± 0.7%, the IC50 (SaOS-2 cells [5]) was 12.6 µM and the “cell morphology / DNA damage (Hoechst)” value [6] was “did not alter cell morphology or cause DNA damage”. For the same compound, the “tolerance of treatment by osteoblasts” value (normal human osteoblasts) was “better tolerated”, the osteoblast viability ([7]; 12.5 μM) was “not affected at all” and the “reduction of osteoblast growth (inhibitory activity)” value [7] was 20%. For the same compound, the “reduction of pro-apoptotic effect on osteoblasts respecting to SaOS-2” value [8] was 79% and the “apoptosis induced in osteoblasts respecting to PP2” value ([8]; at respective IC50, time course 24, 48, 96 h) was “half of apoptosis”.
For `CC(C)(C)n1nc(-c2ccc(Cl)cc2)c2c(N)ncnc21` [PP2, reference compound], the “inhibition of phosphorylation of Src at Y416” value [3] was 50%, the “pro-apoptotic effect (TUNEL)” value (SaOS-2 cells [4]) was “induced apoptosis” and the “concentration at which 83% inhibition of cell viability is obtained” value (SaOS-2 cells [5]; SaOS-2, MTT) was “higher than 50 μM”. For the same compound, the “CV (%) after 24 h (cellular viability with respect to control)” value (SaOS-2 cells [5]; SaOS-2, MTT) was 36.8 ± 1.7%, the “CV (%) after 48 h (cellular viability with respect to control)” value (SaOS-2 cells [5]; SaOS-2, MTT) was 36.4 ± 1.6% and the IC50 (SaOS-2 cells [5]) was 8.07 µM. The “tolerance of treatment by osteoblasts” value (normal human osteoblasts) was “did not tolerate drug treatment”, the “percentage of Ca2+ inside calcification nodules” value (normal human osteoblasts; twice a week, 1-3 weeks) was “always lower than control” and the “reduction of osteoblast growth (inhibitory activity)” value [7] was 50%. The cell cycle progression (SaOS-2 cells [9]) was “stop cell cycle progression in G0 and G1 phases in a dose-dependent manner” and the “reduction of pro-apoptotic effect on osteoblasts respecting to SaOS-2” value [8] was 15%.
